One assay addresses T1, AXL (Homo sapiens, UniProt P30530).
T1 construct: endogenous in cells; host or cells: A-172 glioblastoma cells (ATCC #CRL-1620)
T1 sequence (P30530 26-894): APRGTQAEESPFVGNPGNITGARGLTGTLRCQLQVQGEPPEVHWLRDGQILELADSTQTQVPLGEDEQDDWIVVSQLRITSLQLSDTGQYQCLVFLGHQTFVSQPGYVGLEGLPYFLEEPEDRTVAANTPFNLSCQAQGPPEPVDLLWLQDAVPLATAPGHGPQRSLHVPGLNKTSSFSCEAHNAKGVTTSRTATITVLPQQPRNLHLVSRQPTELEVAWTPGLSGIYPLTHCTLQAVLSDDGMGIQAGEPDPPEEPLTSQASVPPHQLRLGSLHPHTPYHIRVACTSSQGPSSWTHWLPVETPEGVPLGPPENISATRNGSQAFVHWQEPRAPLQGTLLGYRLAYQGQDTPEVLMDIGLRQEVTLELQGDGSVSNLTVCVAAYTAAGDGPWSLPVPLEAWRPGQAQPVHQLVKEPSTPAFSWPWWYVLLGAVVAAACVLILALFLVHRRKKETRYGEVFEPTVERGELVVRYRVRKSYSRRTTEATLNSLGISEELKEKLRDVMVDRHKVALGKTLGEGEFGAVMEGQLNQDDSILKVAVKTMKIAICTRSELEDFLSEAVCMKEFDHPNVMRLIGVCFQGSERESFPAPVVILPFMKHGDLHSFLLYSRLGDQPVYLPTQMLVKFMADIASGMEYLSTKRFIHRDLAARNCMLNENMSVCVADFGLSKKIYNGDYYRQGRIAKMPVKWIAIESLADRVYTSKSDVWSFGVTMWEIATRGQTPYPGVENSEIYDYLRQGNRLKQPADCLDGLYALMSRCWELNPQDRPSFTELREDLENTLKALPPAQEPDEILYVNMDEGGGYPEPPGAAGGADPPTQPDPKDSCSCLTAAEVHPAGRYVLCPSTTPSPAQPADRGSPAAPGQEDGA
The assay can be described thus: AXL autophosphorylation ELISA in A-172 cells. Format: cell-based. The settings on record: Table 3 Cellular Activities, Gas6-stimulated, phospho-AXL ELISA. In short, it runs like this:
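Phospho-AXL in lysates measured by ELISA after Gas6 stimulation (1 μg/mL, 15 min) of A-172 cells pre-incubated 1 h with an 8-point compound dilution series in 0.3% DMSO after 24 h serum starvation. IC50 by 4-parameter logistic fit, with DMSO-treated and reference-inhibitor wells as 100% and 0% activity.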

A further assay concerns the target KDR (Homo sapiens, UniProt P35968). The assay can be described thus: KDR autophosphorylation ELISA in HUVEC cells. The assay is classed as cell-based. Set-up: endogenous in cells; host or cells: HUVEC (Lonza #C2519A). The settings on record: Table 3 Cellular Activities, VEGF165-stimulated, phospho-KDR ELISA. The method, boiled down: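 Phospho-KDR levels in lysates were measured by ELISA and referenced to stimulated-vehicle (100%) and unstimulated (0%) wells, IC50 from 4-parameter logistic fit. HUVEC, starved 24 h in serum-free medium, received an 8-point compound series (0.3% DMSO) for 1 h before a 5 min 100 ng/mL VEGF165 challenge.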

Where a name gives a salt, the structure may show the parent alone.

Chain of KDR (P35968 20-1356): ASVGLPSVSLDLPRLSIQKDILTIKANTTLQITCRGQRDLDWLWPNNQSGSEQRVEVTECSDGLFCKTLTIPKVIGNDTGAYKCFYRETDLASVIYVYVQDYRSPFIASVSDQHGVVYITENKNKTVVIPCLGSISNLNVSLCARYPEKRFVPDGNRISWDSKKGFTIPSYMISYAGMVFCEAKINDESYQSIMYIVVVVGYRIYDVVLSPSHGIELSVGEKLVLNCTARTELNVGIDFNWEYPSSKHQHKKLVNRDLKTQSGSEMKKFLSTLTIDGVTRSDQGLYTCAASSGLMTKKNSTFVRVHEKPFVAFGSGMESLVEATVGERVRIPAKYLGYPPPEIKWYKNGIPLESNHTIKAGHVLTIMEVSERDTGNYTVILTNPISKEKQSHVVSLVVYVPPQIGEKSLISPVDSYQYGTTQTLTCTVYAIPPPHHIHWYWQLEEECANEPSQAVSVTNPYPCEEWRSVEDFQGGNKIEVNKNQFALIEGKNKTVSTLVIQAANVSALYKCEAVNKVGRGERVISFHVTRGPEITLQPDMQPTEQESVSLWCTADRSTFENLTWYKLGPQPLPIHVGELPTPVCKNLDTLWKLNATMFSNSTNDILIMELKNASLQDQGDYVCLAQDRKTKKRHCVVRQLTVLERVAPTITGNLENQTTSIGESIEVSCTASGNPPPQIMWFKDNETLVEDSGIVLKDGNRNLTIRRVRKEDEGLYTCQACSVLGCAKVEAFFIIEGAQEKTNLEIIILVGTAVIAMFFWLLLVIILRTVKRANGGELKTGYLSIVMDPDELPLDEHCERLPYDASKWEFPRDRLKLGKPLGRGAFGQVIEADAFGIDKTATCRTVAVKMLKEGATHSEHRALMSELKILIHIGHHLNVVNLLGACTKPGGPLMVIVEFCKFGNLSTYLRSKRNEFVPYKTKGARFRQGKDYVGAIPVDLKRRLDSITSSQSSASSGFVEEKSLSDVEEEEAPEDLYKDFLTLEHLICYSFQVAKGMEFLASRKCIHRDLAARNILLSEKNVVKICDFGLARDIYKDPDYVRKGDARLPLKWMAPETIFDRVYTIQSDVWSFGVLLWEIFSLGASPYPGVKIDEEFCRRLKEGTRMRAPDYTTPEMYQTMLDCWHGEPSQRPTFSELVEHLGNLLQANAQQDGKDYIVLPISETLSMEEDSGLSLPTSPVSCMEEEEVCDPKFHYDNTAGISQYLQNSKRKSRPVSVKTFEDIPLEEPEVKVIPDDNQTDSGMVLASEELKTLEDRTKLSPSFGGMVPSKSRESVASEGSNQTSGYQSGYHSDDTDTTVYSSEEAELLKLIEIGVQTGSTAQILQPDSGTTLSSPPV

Regarding `COc1cc2nccc(Oc3ccc(NC(=O)c4cccn(-c5cc[n+]([O-])cc5)c4=O)cc3F)c2nc1OC` [Compound 247, N-[4-[(6,7-Dimethoxy-1,5-naphthyridin-4-yl)oxy]-3-fluorophenyl]-1-(1-oxidopyridin-1-ium-4-yl)-2-oxopyridine-3-carboxamide hydrochloride], the IC50 is 300 to 1000 nM at AXL and 100 to 300 nM on KDR.
Consider `COc1cc2nccc(Oc3ccc(NC(=O)c4c(C)n(C)cc(-c5ccc(F)cn5)c4=O)cc3)c2nc1OC` [Compound 72, N-[4-[(6,7-Dimethoxy-1,5-naphthyridin-4-yl)oxy]phenyl]-5-(5-fluoropyridin-2-yl)-1,2-dimethyl-4-oxopyridine-3-carboxamide], for which the figures for the IC50 on AXL and against KDR were at most 100 nM and 300 to 1000 nM, respectively.
Regarding `COc1cc2nccc(Oc3ccc(NC(=O)c4nnc(C)c(-c5ccc(F)cn5)c4OC)cc3F)c2nc1OC` [Compound 215, N-[4-[(6,7-Dimethoxy-1,5-naphthyridin-4-yl)oxy]-3-fluorophenyl]-5-(5-fluoropyridin-2-yl)-4-methoxy-6-methylpyridazine-3-carboxamide], the IC50 is at most 100 nM at AXL and 300 to 1000 nM at KDR.
In the same order, the values of `COc1cc2nccc(Oc3ccc(NC(=O)c4c(C)nc(C)c(-c5ccc(F)cn5)c4O)cc3)c2nc1OC` [Compound 216, N-[4-[(6,7-Dimethoxy-1,5-naphthyridin-4-yl)oxy]phenyl]-5-(5-fluoropyridin-2-yl)-4-hydroxy-2,6-dimethylpyridine-3-carboxamide] are at most 100 nM and at most 100 nM.
Regarding `COc1ccc2nccc(Oc3ccc(NC(=O)c4ccc(C)n(-c5ccc(F)cn5)c4=O)cc3F)c2n1` [Compound 47, N-[3-Fluoro-4-[(6-methoxy-1,5-naphthyridin-4-yl)oxy]phenyl]-1-(5-fluoropyridin-2-yl)-6-methyl-2-oxopyridine-3-carboxamide], the IC50 on AXL and against KDR was at most 100 nM throughout.

(Values after US20230151003A1, “COMPOUNDS AND METHODS OF USE” (Exelixis, Inc., priority 2020, published 2023).)
